The supplement of paper PMC10307832

Legend:
Test in all cases: relative viability (nuclei count vs DMSO), 5 days (fraction); higher = more cells survive
[1] = compound: COc1nc(N)nc2c1ncn2[C@@H]1O[C@H](CO)[C@@H](O)[C@@H]1O [Nelarabine] + CC(=O)c1c(C)c2cnc(Nc3ccc(N4CCNCC4)cn3)nc2n(C2CCCC2)c1=O [Palbociclib] (partner 0.5 µM)
Summary of the method: (§1)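 Values are medians from duplicate plates. Each reflects relative viability, defined as the nuclei count of treated wells over that of vehicle wells. Lung cancer cell lines in 1536-well plates were pin-tool dosed one day after seeding with one drug alone or with a fixed anchor-drug dose plus five library-drug doses (not always all listed) in √10 steps, then fixed, stained and imaged at 4× after 5 days.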

[2] = compound: COc1nc(N)nc2c1ncn2[C@@H]1O[C@H](CO)[C@@H](O)[C@@H]1O [Nelarabine] + NC(=O)Nc1cc(-c2cccc(F)c2)sc1C(=O)N[C@H]1CCCNC1 [AZD7762] (partner 0.2 µM)
Summary of the method: as §1

[3] = compound: C=CCn1c(=O)c2cnc(Nc3ccc(N4CCN(C)CC4)cc3)nc2n1-c1cccc(C(C)(C)O)n1 [Adavosertib] + Cc1nc(NC(=O)N2CCC[C@H]2C(N)=O)sc1-c1ccnc(C(C)(C)C(F)(F)F)c1 [Alpelisib] (partner 2 µM)
Summary of the method: as §1

[4] = compound: COc1nc(N)nc2c1ncn2[C@@H]1O[C@H](CO)[C@@H](O)[C@@H]1O [Nelarabine] + CC(C)C[C@H](NC(=O)[C@H](Cc1ccccc1)NC(=O)c1cnccn1)B(O)O [Bortezomib] (partner 0.002 µM)
Summary of the method: as §1

Cell Line	relative viability ([1]; first compound 0.01 µM)	relative viability ([1]; first compound 0.03162 µM)	relative viability ([1]; first compound 0.1 µM)	relative viability ([1]; first compound 0.3162 µM)	relative viability ([1]; first compound 1 µM)	relative viability ([2]; first compound 0.01 µM)	relative viability ([2]; first compound 0.03162 µM)	relative viability ([2]; first compound 0.1 µM)	relative viability ([2]; first compound 0.3162 µM)	relative viability ([2]; first compound 1 µM)	relative viability ([3]; first compound 0.01 µM)	relative viability ([3]; first compound 0.03162 µM)	relative viability ([3]; first compound 0.1 µM)	relative viability ([3]; first compound 0.3162 µM)	relative viability ([4]; first compound 0.01 µM)	relative viability ([4]; first compound 0.03162 µM)	relative viability ([4]; first compound 0.1 µM)	relative viability ([4]; first compound 0.3162 µM)	relative viability ([4]; first compound 1 µM)
NCI-H23	0.54	0.51	0.43	0.503	0.634	0.205	0.227	0.241	0.232	0.25	0.639	0.775	0.591	0.346	1.38	0.97	1.13	0.957	1.1
NCI-H1975	0.656	0.526	0.747	0.726	0.649	0.964	0.799	0.778	0.701	0.766	0.736	0.63	0.546	0.339	0.362	0.258	0.429	0.399	0.404
NCI-H3122	0.194	0.145	–	0.201	0.207	1.24	0.769	–	0.998	0.969	0.763	0.656	0.83	0.84	1.03	0.872	–	1.03	1.02
NCI-H838	0.267	0.244	0.226	0.242	0.253	1.04	0.847	0.955	1	0.957	1.01	1.01	0.996	1.08	1.06	0.748	0.87	0.868	0.7
H3255	0.327	0.292	0.311	0.315	0.355	0.835	0.933	0.938	0.854	0.95	0.648	0.689	0.716	0.668	1.06	0.868	0.897	0.722	0.696
NCI-H2085	0.479	0.437	0.479	0.459	0.431	1.11	1.04	0.996	1.12	0.987	1.02	0.993	0.969	0.975	1.07	0.976	1.02	1.05	0.889
NCI-H1355	0.398	0.316	0.401	0.401	0.447	0.935	0.608	0.657	0.804	0.822	0.878	0.84	0.777	0.751	1.39	1.05	1.25	1.32	1.37
NCI-H1755	0.462	0.464	0.462	0.463	0.453	0.473	0.455	0.425	0.516	0.474	0.983	0.859	0.856	0.868	1.02	0.971	0.947	1.03	1.03
NCI-H650	0.338	0.283	0.297	0.301	0.363	0.75	0.991	0.915	0.932	0.943	1.15	1.1	1.17	0.935	1.13	0.703	0.758	0.977	0.897
BEN	0.532	0.452	0.497	0.491	0.494	0.746	0.683	0.711	0.683	0.674	1.24	1.09	1.04	1.18	0.915	0.652	0.887	1.19	0.969
NCI-H322M	0.382	0.499	0.475	0.473	0.495	0.559	0.553	0.522	0.595	0.507	–	0.77	0.711	0.543	1.29	1.2	1.18	1.28	1.46
HCC-366	0.632	0.272	0.473	0.453	0.416	0.371	0.217	0.228	0.411	0.287	0.47	0.435	0.501	0.509	1.95	0.968	1.33	1.23	1.13
EPLC-272H	0.337	0.263	0.236	0.337	0.28	0.196	0.209	0.305	0.247	0.297	0.918	0.893	0.868	0.723	1.04	0.925	0.823	0.887	0.981
NCI-H647	0.423	0.396	0.501	0.457	0.458	0.554	0.294	0.563	0.58	0.431	1.1	1.1	1.02	0.508	1.28	0.988	0.897	1.29	1.14
CAL-12T	0.474	0.489	0.551	0.412	0.515	0.721	0.642	0.685	0.58	0.561	1.09	1.27	1.2	0.929	1.11	0.973	1.31	0.958	0.959
NCI-H460	0.212	0.213	0.144	0.162	0.181	0.79	0.626	0.616	0.558	0.323	0.543	0.518	0.374	0.21	–	1.34	1.69	1.37	1.1
NCI-H1437	0.342	0.35	0.307	0.338	0.302	1.24	1.17	1.15	1.15	1.09	1.01	1.02	0.897	0.977	0.678	0.523	0.553	0.479	0.444

Cell Line	relative viability ([1]; first compound 0.01 µM)	relative viability ([1]; first compound 0.03162 µM)	relative viability ([1]; first compound 0.1 µM)	relative viability ([1]; first compound 0.3162 µM)	relative viability ([1]; first compound 1 µM)	relative viability ([2]; first compound 0.01 µM)	relative viability ([2]; first compound 0.03162 µM)	relative viability ([2]; first compound 0.1 µM)	relative viability ([2]; first compound 0.3162 µM)	relative viability ([2]; first compound 1 µM)	relative viability ([3]; first compound 0.01 µM)	relative viability ([3]; first compound 0.03162 µM)	relative viability ([3]; first compound 0.1 µM)	relative viability ([3]; first compound 0.3162 µM)	relative viability ([4]; first compound 0.01 µM)	relative viability ([4]; first compound 0.03162 µM)	relative viability ([4]; first compound 0.1 µM)	relative viability ([4]; first compound 0.3162 µM)	relative viability ([4]; first compound 1 µM)
NCI-H2087	0.251	0.189	0.268	0.198	0.192	1.72	1.42	1.37	1.51	1.21	1.11	1.07	1.2	0.944	1.08	0.821	1.03	1.03	0.793
LU99A	0.48	0.34	0.429	0.43	0.399	0.365	0.284	0.335	0.312	0.424	0.48	0.511	0.476	0.319	1.33	1.09	1.15	1.23	1.33
NCI-H1993	0.721	0.516	0.692	0.547	0.647	0.845	0.438	0.642	0.841	0.692	0.733	0.65	0.723	0.68	1.25	1.21	1.27	1.13	1.04
NCI-H2347	0.407	0.37	0.42	0.402	0.481	0.915	0.658	0.718	0.506	0.769	1.06	1.02	1.04	0.975	1.27	–	0.862	0.985	1.3
NCI-H1734	0.387	0.305	0.334	0.368	0.326	0.699	0.5	0.484	0.603	0.531	0.728	0.69	0.707	0.624	1.1	0.961	0.949	0.9	0.955
HCC-44	0.985	0.955	0.978	0.984	0.944	1.01	0.951	1.05	0.999	0.955	0.881	0.864	0.813	0.958	1.05	0.845	0.866	0.924	0.924
LCLC-97TM1	–	–	0.299	0.229	0.265	0.273	–	0.351	0.281	0.215	–	0.219	0.23	0.122	1.05	–	0.716	0.634	0.205
HOP-62	0.567	0.49	0.496	0.419	0.485	0.684	0.396	0.602	0.798	0.48	0.924	1.02	1.14	0.955	1.46	0.392	1.11	1.18	1.02
NCI-H2405	0.495	0.48	0.516	0.529	0.51	0.837	0.647	0.71	0.736	0.81	0.765	0.878	0.874	0.764	1.06	0.943	0.908	1.03	0.954
HCC-78	0.433	0.41	–	0.484	0.46	0.708	0.673	–	0.764	0.564	0.347	0.305	0.443	0.278	0.771	0.497	–	0.584	0.539
NCI-H1915	0.598	0.531	0.533	0.522	0.525	0.747	0.728	0.687	0.704	0.733	1.07	1.07	1.13	1.15	1.25	0.871	1.04	0.975	0.96
NCI-H1666	0.607	0.648	0.677	0.661	0.59	0.844	0.877	0.819	0.84	0.795	0.85	0.889	0.934	0.796	1.02	1.02	0.747	0.89	0.789
NCI-H441	0.194	0.188	0.202	0.192	0.192	1.33	1.2	1.43	1.14	1.23	0.807	0.745	0.764	0.596	0.357	0.71	0.613	0.519	0.567
LC-2-ad	0.525	0.495	0.475	0.544	0.522	1.01	0.96	0.859	0.908	0.856	0.768	0.84	0.791	0.804	1.08	1.03	0.972	1.26	1.07
LCLC-103H	0.523	0.421	0.466	0.486	0.504	0.829	0.75	0.71	0.855	0.838	0.973	0.926	1.04	0.94	1.36	1.05	1.01	1.13	1.1
NCI-H727	0.659	0.602	0.663	0.624	0.608	0.497	0.525	0.463	0.543	0.463	0.545	0.593	0.629	0.577	1.09	0.768	0.869	0.95	0.795
HCC-827	0.537	0.504	0.454	0.378	0.397	0.203	0.208	0.158	0.175	0.163	1	1.05	0.995	0.838	1.09	0.956	1.02	0.914	0.783
